Where “and” joins values, the source holds several entries; their conditions need not be identical. Identical values can stand only once. Bridge positions count the residues as written; N and C are the ends. Square brackets hold non-standard residues; d marks the D form. Peptide text beside a SMILES is read from it. Sec = N[C@@H](C[SeH])C(=O)O
Assays:
[1] = Degradation in simulated gastric fluid (SGF); assay type: in vitro ADME; conditions: for half-life: simulated gastric fluid, pH 1.3, pepsin 0.2 mg/mL stock, read-out: SGF t1/2; for half-life / SGF t1/2 / half-life in SGF relative to sCT: pH 1.3, 37 °C; for SGF t1/2: pepsin 0.2 mg/mL stock; for half-life in SGF relative to sCT: pepsin
Method: sCT and its analogues were evaluated for their degradation in simulated gastric fluid (SGF). The stock solution of each analogue was prepared by dissolving 2 mg of the peptide in 1 mL water. The stock solution of pepsin enzyme was prepared by dissolving 5 mg of pepsin in 5 mL of 10 mM HCl (1 mg/mL), and then was diluted to a 0.2 mg/mL with 10 mM HCl. 7 For degradation, 34 μL of pepsin (0.2 mg/mL) was added to 100 μL of peptide (2 mg/mL) at pH 1.3 and the reaction incubated at 37° C. To monitor the degradation, 10 μL of the reaction aliquots were taken and quenched with 10 μL of 10 mM NaOH every 30 min for several hours and analyzed by HPLC using XSelect C18 column ([…], 130 A, 4.6×150 mm) with a gradient of 5-70% of 0.1% TFA in MeCN over 20 min with monitoring at 220 nm.

[2] = Circular dichroism analysis, percent α-helicity; assay type: physicochemical; conditions: 10 mM phosphate buffer pH 7, SDS; for % α helicity: 10-30 μM peptide, 2 h folding
Method: Following synthesis of the calcitonin analogues, the helicity of the calcitonin analogues was assessed by circular dichroism analysis. Far ultraviolet spectra (FIG. 6) were obtained from 195-260 nm on J-180 spectropolarimeter (Jasco) using 10-30 μM of sCT and all analogues in 10 mM phosphate buffer pH 7 and in the presence of sodium dodecyl sulphate (SDS), which were left for 2 h to allow folding. Each spectrum represents the average of 3 scans, and the mean residue ellipticity (θMRE) was calculated according to the following equation: […]
Percentage helicity of peptides as presented in Table 2 was calculated according to the following equation (Sommese, et al. 2010): […]
where n is the number of amino acids in the peptide.

[3] = target: T1, calcitonin receptor (CTR) (Homo sapiens, UniProt P30988); assay: Ca^2+ concentration assay, HEK293 CALCR-HiTSeeker cell line; assay type: cell-based; set-up: expressed in transfected cells; conditions: HEK293 CALCR-HiTSeeker cells
T1 sequence (P30988 25-474): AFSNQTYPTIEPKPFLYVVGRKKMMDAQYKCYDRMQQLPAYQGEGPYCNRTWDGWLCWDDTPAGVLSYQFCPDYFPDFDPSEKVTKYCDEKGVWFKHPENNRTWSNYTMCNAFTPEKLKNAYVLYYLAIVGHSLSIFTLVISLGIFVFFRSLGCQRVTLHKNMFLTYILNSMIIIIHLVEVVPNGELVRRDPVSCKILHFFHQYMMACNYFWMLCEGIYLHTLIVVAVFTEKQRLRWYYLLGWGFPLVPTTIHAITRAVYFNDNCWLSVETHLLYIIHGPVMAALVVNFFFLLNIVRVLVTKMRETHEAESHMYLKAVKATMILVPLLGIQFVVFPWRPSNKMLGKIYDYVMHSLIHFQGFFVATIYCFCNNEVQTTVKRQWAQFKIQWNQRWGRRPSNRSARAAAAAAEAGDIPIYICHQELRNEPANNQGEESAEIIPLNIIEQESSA

[4] = target: T1, calcitonin receptor (CTR); assay: cAMP accumulation assay, U2OS Red cAMPNomad-CALCR cell line; assay type: cell-based; set-up: expressed in transfected cells; host or cells: U2OS Red cAMPNomad-CALCR; conditions: U2OS Red cAMPNomad-CALCR cells; for EC50: overnight incubation
[5] = Degradation in simulated intestinal fluid (SIF); conditions: for stability in SIF compared to sCT: pancreatin; for half-life: simulated intestinal fluid, pH 6.8, SIF t1/2, pancreatin 2 mg/mL stock

| Compound | half-life [1] [min] | % α helicity [2] [%] | SGF t1/2 [1] [min] | half-life in SGF relative to sCT ([1]; vs sCT) | improvement in stability in simulated gastric fluid over sCT ([1]; vs sCT, first figure of sentence) [fold] | EC50 ([3]; read-out: Ca^2+ EC50) [nM] | EC50 ([4]; read-out: cAMP EC50) | SIF t1/2 ([5]; pancreatin 2 mg/mL stock, pH 6.8, 37 °C) [min] | stability in SIF compared to sCT ([5]; pH 6.8, 37 °C, vs sCT) | half-life ([5]; pH 6.8, 37 °C) [min] | improvement in stability in simulated gastric fluid ([5]; vs sCT, second figure of sentence) [fold] | Ca^2+ EC50 / efficacy [3] | helicity retained following cyclization [2] | cAMP EC50 / potency [4] | EC50 ([3]; read-out: Ca^2+ EC50 (bound)) [nM] | EC50 ([4]; read-out: cAMP EC50 (bound)) [nM] |
| --- | --- | --- | --- | --- | --- | --- | --- | --- | --- | --- | --- | --- | --- | --- | --- | --- |
| CC(C)C[C@H](NC(=O)[C@H](CCCCN)NC(=O)CNC(=O)[C@H](CC(C)C)NC(=O)[C@@H](NC(=O)[C@@H]1CSSC[C@H](N)C(=O)N[C@@H](CO)C(=O)N[C@@H](CC(N)=O)C(=O)N[C@@H](CC(C)C)C(=O)N[C@@H](CO)C(=O)N[C@@H]([C@@H](C)O)C(=O)N1)C(C)C)C(=O)N[C@@H](CO)C(=O)N[C@@H](CCC(N)=O)C(=O)N[C@H]1CCC(=O)NCCCC[C@@H](C(=O)N[C@@H](CC(C)C)C(=O)N[C@@H](CCC(N)=O)C(=O)N[C@H](C(=O)N[C@@H](Cc2ccc(O)cc2)C(=O)N2CCC[C@H]2C(=O)N[C@@H](CCCNC(=N)N)C(=O)N[C@H](C(=O)N[C@@H](CC(N)=O)C(=O)N[C@H](C(=O)NCC(=O)N[C@@H](CO)C(=O)NCC(=O)N[C@H](C(=O)N2CCC[C@H]2C(N)=O)[C@@H](C)O)[C@@H](C)O)[C@@H](C)O)[C@@H](C)O)NC(=O)[C@H](Cc2c[nH]cn2)NC(=O)[C@H](CC(C)C)NC1=O [CT(E15-K18)] | 47.3 ± 1.9 | 62.9 |  |  |  |  |  |  |  |  |  |  |  |  |  |  |
| CC(C)C[C@@H]1NC(=O)[C@@H](NC(=O)CNC(=O)[C@H](CC(C)C)NC(=O)[C@@H](NC(=O)[C@@H]2CSSC[C@H](N)C(=O)N[C@@H](CO)C(=O)N[C@@H](CC(N)=O)C(=O)N[C@@H](CC(C)C)C(=O)N[C@@H](CO)C(=O)N[C@@H]([C@@H](C)O)C(=O)N2)C(C)C)CCCCNCc2cc(ccc2O)C[C@@H](C(=O)N2CCC[C@H]2C(=O)N[C@@H](CCC(N)=O)C(=O)N[C@H](C(=O)N[C@@H](CC(N)=O)C(=O)N[C@H](C(=O)NCC(=O)N[C@@H](CO)C(=O)NCC(=O)N[C@H](C(=O)N2CCC[C@H]2C(N)=O)[C@@H](C)O)[C@@H](C)O)[C@@H](C)O)NC(=O)[C@H]([C@@H](C)O)NC(=O)[C@H](CCC(N)=O)NC(=O)[C@H](CC(C)C)NC(=O)[C@H](CCCCN)NC(=O)[C@H](Cc2c[nH]cn2)NC(=O)[C@H](CC(C)C)NC(=O)[C@H](CCC(=O)O)NC(=O)[C@H](CCC(N)=O)NC(=O)[C@H](CO)NC1=O [KaY-1(R24Q)] | 170 |  | 170.6 ± 32.2 | five-fold longer half-life | 5 | 216 ± 43.8 | 2.67 nM and 2.7 nM | 41.9 ± 6.1 | six-fold enhancement in stability compared to sCT | 42 | 6 |  |  |  |  |  |
| CC(C)C[C@@H]1NC(=O)[C@@H](NC(=O)CNC(=O)[C@H](CC(C)C)NC(=O)[C@@H](NC(=O)[C@@H]2CSSC[C@H](N)C(=O)N[C@@H](CO)C(=O)N[C@@H](CC(N)=O)C(=O)N[C@@H](CC(C)C)C(=O)N[C@@H](CO)C(=O)N[C@@H]([C@@H](C)O)C(=O)N2)C(C)C)CCCCNCc2cc(ccc2O)C[C@@H](C(=O)N2CCC[C@H]2C(=O)N[C@@H](CCCNC(=N)N)C(=O)N[C@H](C(=O)N[C@@H](CC(N)=O)C(=O)N[C@H](C(=O)NCC(=O)N[C@@H](CO)C(=O)NCC(=O)N[C@H](C(=O)N2CCC[C@H]2C(N)=O)[C@@H](C)O)[C@@H](C)O)[C@@H](C)O)NC(=O)[C@H]([C@@H](C)O)NC(=O)[C@H](CCC(N)=O)NC(=O)[C@H](CC(C)C)NC(=O)[C@H](CCCCN)NC(=O)[C@H](Cc2c[nH]cn2)NC(=O)[C@H](CC(C)C)NC(=O)[C@H](CCC(=O)O)NC(=O)[C@H](CCC(N)=O)NC(=O)[C@H](CO)NC1=O [KaY-1] | 190 | 93.7 | 191.2 ± 66.1 | five-fold longer half-life |  | 166 ± 34.8 | 47.6 ± 24.1 nM |  | did not exhibit any improvements | 7.1 ± 0.7 |  | similar | retain the high degree of helicity | EC50 in the nanomolar range |  |  |
| CC(C)C[C@H](NC(=O)[C@H](CCCCN)NC(=O)CNC(=O)[C@H](CC(C)C)NC(=O)[C@@H](NC(=O)[C@@H]1CSSC[C@H](N)C(=O)N[C@@H](CO)C(=O)N[C@@H](CC(N)=O)C(=O)N[C@@H](CC(C)C)C(=O)N[C@@H](CO)C(=O)N[C@@H]([C@@H](C)O)C(=O)N1)C(C)C)C(=O)N[C@@H](CO)C(=O)N[C@@H](CCC(N)=O)C(=O)N[C@@H](CCC(=O)O)C(=O)N[C@@H](CC(C)C)C(=O)N[C@@H](Cc1c[nH]cn1)C(=O)N[C@H]1CCCCNCc2cc(ccc2O)C[C@@H](C(=O)N2CCC[C@H]2C(=O)N[C@@H](CCCNC(=N)N)C(=O)N[C@H](C(=O)N[C@@H](CC(N)=O)C(=O)N[C@H](C(=O)NCC(=O)N[C@@H](CO)C(=O)NCC(=O)N[C@H](C(=O)N2CCC[C@H]2C(N)=O)[C@@H](C)O)[C@@H](C)O)[C@@H](C)O)NC(=O)[C@H]([C@@H](C)O)NC(=O)[C@H](CCC(N)=O)NC(=O)[C@H](CC(C)C)NC1=O [KaY-2] | 34.5 ± 0.3 | 56.2 |  |  |  |  |  |  |  |  |  |  |  |  |  |  |
| CC(C)C[C@H](NC(=O)[C@H](CCCCN)NC(=O)CNC(=O)[C@H](CC(C)C)NC(=O)[C@@H](NC(=O)[C@@H]1CSCSC[C@H](N)C(=O)N[C@@H](CO)C(=O)N[C@@H](CC(N)=O)C(=O)N[C@@H](CC(C)C)C(=O)N[C@@H](CO)C(=O)N[C@@H]([C@@H](C)O)C(=O)N1)C(C)C)C(=O)N[C@@H](CO)C(=O)N[C@@H](CCC(N)=O)C(=O)N[C@@H](CCC(=O)O)C(=O)N[C@@H](CC(C)C)C(=O)N[C@@H](Cc1c[nH]cn1)C(=O)N[C@@H](CCCCN)C(=O)N[C@@H](CC(C)C)C(=O)N[C@@H](CCC(N)=O)C(=O)N[C@H](C(=O)N[C@@H](Cc1ccc(O)cc1)C(=O)N1CCC[C@H]1C(=O)N[C@@H](CCCNC(=N)N)C(=O)N[C@H](C(=O)N[C@@H](CC(N)=O)C(=O)N[C@H](C(=O)NCC(=O)N[C@@H](CO)C(=O)NCC(=O)N[C@H](C(=O)N1CCC[C@H]1C(N)=O)[C@@H](C)O)[C@@H](C)O)[C@@H](C)O)[C@@H](C)O [MT-CT] | 33.5 ± 0.2 | 98.5 |  |  |  | 7300 ± 700 | 1670 ± 60 nM |  |  |  |  |  | retain the high degree of helicity |  | > 1000 | > 1000 |
| CC(C)C[C@H](NC(=O)[C@H](CCCCN)NC(=O)CNC(=O)[C@H](CC(C)C)NC(=O)[C@@H](NC(=O)[C@@H]1C[Se][Se]C[C@H](N)C(=O)N[C@@H](CO)C(=O)N[C@@H](CC(N)=O)C(=O)N[C@@H](CC(C)C)C(=O)N[C@@H](CO)C(=O)N[C@@H]([C@@H](C)O)C(=O)N1)C(C)C)C(=O)N[C@@H](CO)C(=O)N[C@@H](CCC(N)=O)C(=O)N[C@@H](CCC(=O)O)C(=O)N[C@@H](CC(C)C)C(=O)N[C@@H](Cc1c[nH]cn1)C(=O)N[C@@H](CCCCN)C(=O)N[C@@H](CC(C)C)C(=O)N[C@@H](CCC(N)=O)C(=O)N[C@H](C(=O)N[C@@H](Cc1ccc(O)cc1)C(=O)N1CCC[C@H]1C(=O)N[C@@H](CCCNC(=N)N)C(=O)N[C@H](C(=O)N[C@@H](CC(N)=O)C(=O)N[C@H](C(=O)NCC(=O)N[C@@H](CO)C(=O)NCC(=O)N[C@H](C(=O)N1CCC[C@H]1C(N)=O)[C@@H](C)O)[C@@H](C)O)[C@@H](C)O)[C@@H](C)O [Se-CT] (H-[Sec]SNLST[Sec]VLGKLSQELHKLQTYPRTNTGSGTP-NH2; diselenide 1-7) | 32.6 ± 0.5 | 99.2 |  |  |  | 113 ± 18.3 | 82.7 ± 16.5 nM |  |  |  |  |  | retain the high degree of helicity | EC50 in the nanomolar range |  |  |

— patent publication US20260308222A1, “STABILIZED ANALOGUES OF CALCITONIN” (YISSUM RESEARCH DEVELOPMENT COMPANY OF THE HEBREW …, priority 2024, published 2026)
